Laboratory results as given in US12502410B2, “Preservation of pancreatic islet grafts in the extrahepatic space” (The Regents of the University of California, priority 2017, dated 2025).

B1: parathyroid hormone (protein, UniProt P01270 32-115, looked up)
Parathyroid hormone: SVSEIQLMHNLGKHLNSMERVEWLRKKLQDVHNFVALGAPLAPRDAGSQRPRKKEDNVLVESHEKSLGEADKADVNVLTKAKSQ
modifications: Parathyroid hormone
notes: main PTG-secreted hormone added to cultures

Columns and labels:
mouse islets = test: Amino acid supplementation, viability of high density culture (PI staining); type: cell-based; settings: 1000 islets/mL, RPMI+5% serum
Source text: (§1) FIG. 15A, FIG. 15B, and FIG. 15C depict the effect of nutrient supplementation on islet cell death in vitro. The effects of cell survival by supplementation of amino acids on mouse islets (FIG. 15A), human islets (FIG. 15B), and SCIPC (FIG. 15C) cultured in low or high density conditions (mouse=1000 islets/mL, human=1000 islets/mL, SCIPC=3000 clusters/mL) in RPMI+5% serum with addition of glucose. GLN: glutamine, TRP: tryptophan. Cell viability is quantified using PI staining via flow cytometry. Data shown are a summary of 3 independent experiments.
(§2) Various insulin-producing cells cultured in low (nutrient replete; mouse=200 islets/mL, human=200 islets/mL, SCIPC=200 clusters/mL) or high density conditions (nutrient limiting; mouse=1000 islets/mL, human=1000 islets/mL, SCIPC=3000 clusters/mL) in RPMI+5% serum with addition of glucose.

human islets = test: as above; type: cell-based; settings: 1000 islets/mL, RPMI+5% serum
Source text: as §1, §2

SCIPC [1] = test: as above; type: cell-based, human; settings: 3000 clusters/mL, RPMI+5% serum
Source text: as §1, §2

eBC = eBC viability in nutrient deprived and/or hypoxic culture, PI staining and flow cytometry; type: cell-based, human; settings: 24 hours; for beta cell survival: nutrient deprived and/or hypoxic; for preservation of insulin-producing cells after stress: nutrient deprived or hypoxic
Description: (§3) SCIPC cultured for 24 hours in nutrient deprived and/or hypoxic conditions with or without GABA, PTH, and PTHrP At the end of the experiment, islet viability was measured using PI staining followed by flow cytometry. FIG. 11B depicts the effect of GABA, PTH and PTHrP on preserving insulin-producing cells after stress. FIG. 11C depicts quantification of viability of eBC cultured for 24 hours in nutrient deprived or hypoxic conditions with or without GABA, PTH, and PTHrP. […] Quantification of viability of cBC cultured for 24 hours in nutrient deprived and/or hypoxic conditions with or without leptin or serotonin. Islet viability measured using PI staining followed by flow cytometry.
(§4) In order to understand whether cell survival is due to secreted pro-survival or pro-angiogenic molecules, known PTG-released molecules were added to SCIPC and eBC cultures in vitro. While PTH is the main PTG-secreted hormone, previous publications also show GABA production within the PTG. GABA and PTH improve beta cell survival in nutrient deprived and/or hypoxic environment in vitro (FIG. 11A).

SCIPC [2] = test: SCIPC viability in nutrient deprived and/or hypoxic culture, PI staining and flow cytometry; type: cell-based, human; settings: for preservation of insulin-producing cells after stress: SCIPC; for beta cell / SCIPC survival: nutrient deprived and/or hypoxic environment, 24 hours
Description: as §3, §4

| Molecule | preservation of insulin-producing cells after stress (eBC) | preservation of insulin-producing cells after stress (SCIPC [2]) | beta cell / SCIPC survival (SCIPC [2]) | other results |
| --- | --- | --- | --- | --- |
| NC(=O)CC[C@H](N)C(=O)O [glutamine] | – | – | – | viability under nutrient-limiting condition (mouse islets): preserved viability; viability under nutrient-limiting condition (human islets): preserved viability; viability under nutrient-limiting condition (SCIPC [1]): preserved viability |
| leptin | – | – | – | beta cell survival (eBC): preserves beta cell survival |
| parathyroid hormone-related protein [PTHrP] | preferentially preserve | preferentially preserve | preserve SCIPC survival | – |
| N[C@@H](Cc1c[nH]c2ccccc12)C(=O)O [tryptophan] | – | – | – | viability under nutrient-limiting condition (mouse islets): preserved viability; viability under nutrient-limiting condition (human islets): preserved viability; viability under nutrient-limiting condition (SCIPC [1]): preserved viability |
| NCCCC(=O)O [GABA] | preferentially preserve | preferentially preserve | improve | – |
| NCCc1c[nH]c2ccc(O)cc12 [serotonin] | – | – | – | beta cell survival (eBC): preserves beta cell survival |
| B1 | preferentially preserve | preferentially preserve | improve | – |
